Reference: patent publication US5324730A, “Phenoxyphosphoryloxymethyl cyclobutyl purines” (Nippon Kayaku Kabushiki Kaisha, priority 1990, dated 1994)
In brackets after ≈: the same amount, converted by molar mass.

How the values were obtained:
[1] = Oral absorbability: plasma concentration of Compound 1a (B^1 = 9-guanyl) in mice after oral or intravenous administration (Method 4); format: in vivo; conditions: Compound 1a (B^1 = 9-guanyl) in plasma, male CDF1 mice; for AUC, intravenous injection / Tmax, intravenous injection: 75 μM/kg intravenous; for AUC, oral administration / Tmax, oral administration: 75 μM/kg oral
Description: Oral absorbability of compounds of this invention were tested according to the following method.
Male CDF1 mice (6-8 weeks in age) (Japan Charles Liver Co.) were used. Each substance to be tested was dissolved into physiological salt solution, and its 75 μM/kg dosage (0.1-0.5 ml/10 g dosage) was administered orally or intravenously. Ten minutes, thirty minutes, one hour and 3 hours after the administration, blood was taken from 2-3 heads of mice by means of an injection tube previously treated with heparin, and the blood was centrifuged at 3,000 rpm for 10 minutes to obtain a plasma. To 200 μl of the plasma was added 9-[2-hydroxy-3-hydroxymethylcyclobutan-1-yl]-guanine (2 μg/10 μl […]) as an internal standard. After diluting it with 4 ml of water, it was washed with 2 ml of water by the use of Ceppack C18 Cartridge (Millipore Waters Co.). It was eluted with 5 ml of methanol, concentrated to dryness, re-dissolved into 200 μl of water, and then subjected to HPLC to measure the concentration of 9-((1R,2R,3S)-2,3-bis(hydroxymethyl)-1cyclobutyl) guanine (Compound 1a, wherein B^1 =9-guanyl), from which maximum concentration (Cmax), time of maximum concentration (Tmax) and the area under the concentration curve (AUC) were determined.
Column: Cosmosil 5C18-P (Nacalai Tesque, 250 mm×4.6 mm, i.d.)
Solvent: 0.1. M citric acid (pH 4): acetonitrile:methanol=50:2:1

[2] = system: Herpes simplex 1 virus (HSV-1); assay: Antiviral activity against HSV-1, CPE inhibition in Vero cells (Method 1); format: cell-based; conditions: Human alphaherpesvirus 1, 50% inhibition of CPE, about 72 hours, Neutral Red
Description: Antiviral activity against Herpes simplex 1 virus (HSV-1) which is a DNA virus was tested by the following method.
Vero cells (originated from kidney cells of African Green Monkey) were cultured in MEM medium to which 10% bovine embryo serum had been added. A cell suspension adjusted to a concentration of 200,000 cells/ml was spread onto 96 wells plate (COSTAR) and cultured for 24 hours so that the cells became confluent. To the medium drawn out was added HSV-1 virus, and it was infected for one hour. Then, the virus fluid was drawn out and cultured for about 72 hours in a fresh medium containing agents. The alive cells were stained with a staining solution containing Neutral Red and absorbance at a wavelength of 546 nm (A546) was measured to evaluate the cytopathic effect (CPE).
CPE inhibition (%) was calculated according to the following equation: [formula] and a quantity of sample enough for 50% inhibition of the CPE due to virus was taken as IC50 (μg/ml).

[3] = system: human cytomegalo-virus (HCMV); assay: Antiviral activity against HCMV, plaque reduction in human embryonic fibroblasts (Method 2); format: cell-based; conditions: Human betaherpesvirus 5, Fibroblast, plaque number reduced to 50%, 9 or 10 days
Description: Antiviral activity against human cytomegalo-virus (HCMV) which is a DNA virus was tested by the following method.
Confluent monolayers of human embryonic fibroblasts in plastic dishes (diameter: 35 mm) were infected with 100 to 150 plaque forming units of HCMV. After an 1-hour adsorption period at 37° C., the cultures were overlaid with 2 ml of 0.5% agarose in Eagle's minimum essential medium containing 3% fetal calf serum and various concentrations of drugs. The cultures infected with HCMV were fixed and stained at 9 or 10 days after infection. The second agarose overlay containing appropriate concentrations of drugs was added 5 days after infection. Plaque numbers were counted by using a dissecting microscope at ×20 magnification. The antiviral activities of drugs were expressed in terms of median effective concentrations (EC50) which were defined as the drug concentrations that reduced the number of plaques to 50%.

[4] = system: hepatitis B virus (HBV); assay: Antiviral activity against HBV, inhibition of HBV DNA synthesis in HB611 cells (Method 3); format: cell-based; conditions: 360 h, 50% inhibition of HBV DNA synthesis, 15 days, read-out: ID50 HBV
Description: Antiviral activity against hepatitis B virus (HBV) which is a DNA virus was tested by the following method.
The test was done by using a cell line, HB611, that was established by transfection and continuously produces HBV like particles [Proc. Natl. Acad. Sci. USA, 84, 444-449, 1987]. HB611 cells were maintained in Dulbecco's modified Eagle medium (Gibco) supplemented with 10% fetal bovine serum (Gibco), 100 μg/ml of streptomycin, 100 IU ml of benzyl penicillin (Gibco) and 200 μg/ml of geneticin (Gibco) at 37° C. in 5% CO2 -95% air.
The cells were seeded in 24-well plate (Corning) at a density of 3×10^4 cells/well, using 1.0 ml of the medium. After 2 days of incubation, the medium was replaced with the same medium containing the test compound. The cells were incubated for a further 15 days, during which time the medium containing the drug was exchanged every three days. The cells were then harvested and cellular DNA was prepared [Virology, 169, 213-216, 1989], and digested with restriction enzyme Hind III (Takara Shuzo Co., Ltd.). An aliquot (2-3 μg) was electrophoresed in 1.5% agarose gel, followed by blotting onto a nylon membrane Hybond-N^+ according to Southern [J. Mol. Biol., 98, 503-517, 1975]. The filter was hybridized to random primed 32p labeled HBV DNA probe, and washed twice with 2× standard saline citrate containing 0.1% SDS at 65° C. for 30 min. It was then autoradiographed, and the results were analyzed using a densitometric analyzer (Shimadzu, Chromatoscana S930).
To quantitatively evaluate the inhibitory activity of the compounds, we measured the band areas S, D1, D2 (S, D1 and D2 represent intracellular free HBV DNA derived from replicative intermediates) and I (represents chromosomally integrated HBV DNA) by densitometric analyzer, and calculated the inhibition percentage as follows: [formula]
In table 1, antiviral activity is represented by 50% inhibition doses (ID50) on HBV DNA synthesis.

Structure (SMILES) | AUC, intravenous injection [1] [ng·h/mL] | Tmax, intravenous injection [1] | AUC, oral administration [1] [ng·h/mL] | Tmax, oral administration [1] | IC50 [2] [µg/mL] | EC50 [3] [µg/mL] | IC50 [4] [µg/mL]
Nc1nc2c(ncn2[C@@H]2C[C@H](CO)[C@H]2COP(=O)(O)Oc2ccccc2)c(=O)[nH]1 [Compound 13, 9-[(1R,2R,3S)-3-hydroxymethyl-2-(hydroxy-(phenoxy)phosphoryl)oxymethyl-1-cyclobutyl]-guanine] | 2962 | 10 ' | 1122 | 30 ' |  |  | 
Nc1nc2c(ncn2[C@@H]2C[C@H](COP(=O)(O)Oc3ccccc3)[C@H]2CO)c(=O)[nH]1 [Compound 14, 9-[(1R,2R,3S)-2-hydroxymethyl-3-(hydroxy-(phenoxy)phosphoryl)oxymethyl-1-cyclobutyl]-guanine] | 5076 | 10 ' | 2262 | 30 ' |  |  | 
Nc1nc2c(ncn2[C@@H]2C[C@H](COP(=O)(O)Oc3ccccc3Cl)[C@H]2CO)c(=O)[nH]1 [Compound 50, 9-[(1R,2R,3S)-2-hydroxymethyl-3-(hydroxy(2-chlorophenoxy)phosphoryl)oxymethyl-1-cyclobutyl]-guanine] | 3177 | 10 ' | 1526 | 30 ' | 1.13 (≈ 2.48 µM) | 1 to 3 (≈ 2.19 to 6.58 µM) | ~0.1 (≈ 0.219 µM)
Nc1nc2c(ncn2[C@@H]2C[C@H](COP(=O)(O)Oc3cccc(Cl)c3)[C@H]2CO)c(=O)[nH]1 [Compound 53, 9[-(1R,2R,3S)-2-hydroxymethyl-3-(hydroxy(3-chlorophenoxy)phosphoryl)oxymethyl-1-cyclobutyl]-guanine] | 3228 | 10 ' | 1405 | 30 ' | 1.22 (≈ 2.68 µM) | 1 to 3 (≈ 2.19 to 6.58 µM) | 0.1 to 1 (≈ 0.219 to 2.19 µM)
Nc1nc2c(ncn2[C@@H]2C[C@H](COP(=O)(O)Oc3ccc(Cl)cc3)[C@H]2CO)c(=O)[nH]1 [Compound 56, 9-[(1R,2R,3S)-2-hydroxymethyl-3-(hydroxy(4-chlorophenoxy)phosphoryl)oxymethyl-1-cyclobutyl]-guanine] | 3167 | 10 ' | 1762 | 10 ' | 0.699 (≈ 1.53 µM) | 1 to 3 (≈ 2.19 to 6.58 µM) | 0.1 to 1 (≈ 0.219 to 2.19 µM)
Nc1nc2c(ncn2[C@@H]2C[C@H](COP(=O)(O)Oc3ccc(F)cc3)[C@H]2CO)c(=O)[nH]1 [Compound 65, 9-[(1R,2R,3S)-2-hydroxymethyl-3-(hydroxy(4-fluorophenoxy)phosphoryl)oxymethyl-1-cyclobutyl]-guanine] | 6373 | 10 ' | 1712 | 30 ' | 1.13 (≈ 2.57 µM) | 1 to 3 (≈ 2.28 to 6.83 µM) | 0.1 to 1 (≈ 0.228 to 2.28 µM)
Cc1ccc(OP(=O)(O)OC[C@H]2C[C@@H](n3cnc4c(=O)[nH]c(N)nc43)[C@@H]2CO)cc1 [Compound 68, 9-[(1R,2R,3S)-2-hydroxymethyl-3-(hydroxy(4-methylphenoxy)phosphoryl)oxymethyl-1-cyclobutyl]-guanine] | 4116 | 10 ' | 1754 | 30 ' | 1.26 (≈ 2.89 µM) | 0.1 to 1 (≈ 0.23 to 2.3 µM) | 0.1 to 1 (≈ 0.23 to 2.3 µM)
COc1ccc(OP(=O)(O)OC[C@H]2C[C@@H](n3cnc4c(=O)[nH]c(N)nc43)[C@@H]2CO)cc1 [Compound 71, 9-[(1R,2R,3S)-2-hydroxymethyl-3-(hydroxy(4-methoxyphenoxy)phosphoryl)oxymethyl-1-cyclobutyl]-guanine] | 4393 | 10 ' | 1678 | 10 ' | 0.873 (≈ 1.93 µM) | 0.1 to 1 (≈ 0.222 to 2.22 µM) | 0.1 to 1 (≈ 0.222 to 2.22 µM)
